Assay results published in patent US10517842B2, “Methods of modulating miRNA levels and compositions for use in the same” (Los Angeles Biomedical Research Institute at Harbor-UCLA …, priority 2017, dated 2019).
Each block holds one molecule with its values, some of them ahead of it.

Columns and labels:
Assay type in all cases: cell-based, human
miR-29c = assay: Quantitative RT-PCR (TaqMan miRNA assay), cellular and secreted miRNA in LSMC; conditions: for miR-29c level: 48 hours, LSMC; for expression of miR-29c: primary leiomyoma cells
Protocol: (§1) Total RNA was extracted from LSMC using RNAzol (GeneCopoeia, Rockville, Md.) and their quantity and quality was determined (ND-1000 Spectrophotometer, NanoDrop Technologies, Wilmington, Del.) as previously described (Chuang & Khorram, “miR-200c Regulates IL8 Expression by Targeting IKBKB: A Potential Mediator of Inflammation in Leiomyoma Pathogenesis,” PloS one (2014) 9:e95370). For medium miRNA extraction, 5 pg of synthetic miR-1 from Caenorhabditis elegans (cel-miR-1) was added as a spike-in control for purification efficiency. Subsequently, 2 μg or 10 ng (for miRNA) was reverse transcribed using random primers for CCND1, CDK2, COL1A1, COL3A1, TGF-β3, DNMT1 and EZH2 or specific primers for miR-29c and miR-200c according to the manufacturer's guidelines (Applied Biosystems, Carlsbad, Calif.). Quantitative RT-PCR was carried out using SYBR gene expression master mix or TaqMan miRNA expression assays (Applied Biosystems). Reactions were incubated for 10 min at 95° C. followed by 40 cycles for 15 seconds at 95° C. and 1 min at 60° C. The level of mRNAs and expression of cellular and secreted miRNA was determined using the Invitrogen StepOne System with 18S, RNU6B and cel-miR-1 used for normalization respectively. All reactions were run in triplicate and relative expression was analyzed with the comparative cycle threshold method (2^−ΔΔCT) according to the manufacturer (Applied Biosystems). Values were expressed as fold change compared to the control group.

3′UTR of CDK2 = assay: 3′UTR luciferase reporter assay in LSMC; conditions: primary leiomyoma cells
3′UTR of COL3A1 = assay: 3′UTR luciferase reporter assay in LSMC; conditions: primary leiomyoma cells
Protocol: LSMC were seeded at 3.5×10^4 cells/well in 6-well plates and at sub-confluence were treated with Tranilast (200 μM) or DMSO as control for 48 hrs. Tranilast and DMSO-treated cells were then transfected with luciferase reporter plasmids (1 μg/well) containing 3′ UTR sequences for COL3A1 or CDK2 (GeneCopoeia, Inc., Rockville, Md.) using PureFection transfection reagent (System Biosciences, Inc., Palo Alto, Calif.). After 48 hrs of transfection Firefly and Renilla luciferase activities were measured using the Dual-Luciferase Reporter Assay System (Promega). Firefly luciferase activity was normalized to Renilla luciferase activity. The level of induction was reported as mean±SEM of three experiments and compared with a ratio in cells treated with DMSO independently set as 1.
FIG. 10A: The relative luciferase activity in LSMC treated with Tranilast (200 μM) or DMSO as control for 48 hrs prior to transfection with Renilla and Firefly luciferase reporter plasmids carrying a 3′UTR fragment of COL3A1, CDK2 or IL8 and incubated with Tranilast (200 μM) or DMSO containing medium after transfection for another 48 hrs. The relative luciferase activity is presented as the ratio of Firefly:Renilla as compared to DMSO which was independently set as 1. The results are presented as mean±SEM of at least three sets of independent experiments using LSMC isolated from 3 patients. FIG. 10B: Protein expression of COL3A1 and CDK2 was determined after transfection of anti-miR scrambled oligonucleotides (aNC) or anti-miR-29c oligonucleotides (a29c) in LSMC for 72 hrs with DMSO or Tranilast (200 μM) treatment for the last 48 hrs. GAPDH was used as loading control. The result is one representative of at least three sets of independent experiments using LSMC isolated from 3 patients. FIG. 10C: The bar graph presented the relative band densities as mean±SEM of at least three independent experiments. Inhibition of protein expression by Tranilast treatment was calculated relative to changes in corresponding DMSO controls in cells transfected with aNC or anti-miR-29c.

miR-200c = assay: Quantitative RT-PCR (TaqMan miRNA assay), cellular and secreted miRNA in LSMC; conditions: primary leiomyoma cells
Protocol: as §1

Molecule: bleomycin
miR-29c level (miR-29c; bleomycin 10 μg/ml): not affected

activity of luciferase reporter containing 3′UTR of CDK2 (3′UTR of CDK2; Pirfenidone 0.25 mg/ml): inhibit | activity of luciferase reporter containing 3′UTR of COL3A1 (3′UTR of COL3A1; Pirfenidone 0.25 mg/ml): inhibit
Molecule: Cc1ccc(=O)n(-c2ccccc2)c1 [Pirfenidone]
expression of miR-200c (miR-200c; Pirfenidone 0.25 mg/ml): induce | expression of miR-29c (miR-29c; Pirfenidone 0.25 mg/ml): induce

Molecule: O=C(CC1NCCCC1O)Cn1cnc2cc(Br)c(Cl)cc2c1=O (centres unmarked) [Halofuginone]
activity of luciferase reporter containing 3′UTR of CDK2 (3′UTR of CDK2; Halofuginone 200 nM): inhibit | activity of luciferase reporter containing 3′UTR of COL3A1 (3′UTR of COL3A1; Halofuginone 200 nM): inhibit | expression of miR-200c (miR-200c; Halofuginone 200 nM): induce | expression of miR-29c (miR-29c; Halofuginone 200 nM): induce

Molecule: CCCCc1oc2ccccc2c1C(=O)c1cc(I)c(OCCN(CC)CC)c(I)c1 [amiodarone]
miR-29c level (miR-29c; amiodarone 1 μM): not affected

Molecule: CC(=O)Oc1ccccc1C(=O)O [Aspirin]
miR-29c level (miR-29c; Aspirin 10 mM): not affected
